The source of these data is patent US20240060990A1, “SPATIAL SIGNALING NETWORKS FOR MULTIPLEXED DRUG RESPONSE MEASUREMENT AND MODELING” (Georgia Tech Research Corporation, priority 2022, published 2024).

Entries after “also recorded” stand apart in the source; their conditions may differ.

One assay relates to p-EGFR (Tyr1086). The experiment in a line: RapMIF multiplexed immunofluorescence in PC9 cells, p-EGFR. To be noted: 40 nM. Type of assay: cell-based, human. As to the method:
Following that, the cells were then fixed and permeabilized with 1.6% formaldehyde in 1×PBS for 10 minutes at RT and 0.5% Triton X-100 for 10 minutes at RT, respectively (FIG. 10A). The cells were then blocked using a cell staining medium (CSM) containing […]. […] PC9 cells were stained with p-EGFR and β-tubulin overnight followed by 1-hour incubation of secondary antibodies at RT, and 15 mins DAPI staining. The cells were then imaged at 40× magnification, and the cell number was analyzed using ImageJ. […] The coverslip was mounted to an acrylic holder for multiple cycles of staining.

In another assay the test system is Bim/Tom20. The experiment in a line: RapMPI (multiplexed PLA) PPI counts in HCC827 cells, 9 PPI panel. Type of assay: cell-based, human. The note with it: 12 hours, 9 PPI dataset. The method, then:
(§1) Following that, the cells were then fixed and permeabilized with 1.6% formaldehyde in 1×PBS for 10 minutes at RT and 0.5% Triton X-100 for 10 minutes at RT, respectively. The cells were then blocked using a cell staining medium (CSM) containing 0.5% BSA, and 0.02% Sodium Azide in PBS. […] HCC827 cells were stained with p-ERK overnight followed by 1-hour incubation of secondary antibodies at RT, and 10 mins DAPI staining. The cells were then imaged at 40× magnification, and the intensity levels were analyzed. […] The coverslip was mounted to an acrylic holder for multiple cycles of staining.
(§2) RapMPI on cell cultures: For single color detection, each coverslip prepared with cells was stained with multiple PPIs with one PPI per cycle. The cells were fixed, permeabilized, and then ready for the following staining steps: 1) block the sample with Duolink blocking solution; 2) incubate it with one pair of proteins, conjugated to one PLUS and one MINUS oligonucleotide at 4° C. overnight.
(§3) For multicolor detection, after permeabilization, the cells underwent the following steps: 1) block the sample with Duolink blocking solution; 2) incubate it with two pair of proteins, conjugated to one pair of oligonucleotides at 4° C. overnight. […] After imaging, the samples were incubated with DNase at a 1:50 dilution rate for 4 hours at RT, followed by 3 times 30% formamide washes and 3 times 1×PBS washes.
(§4) PPI detection: PPI signals were detected using a custom algorithm leveraging a traditional image processing pipeline. More specifically, each PPI image was preprocessed as followed: images were first transformed using a top-hat filter of size 3 pixels to reduce the noise around PPI signals, then Laplacian of Gaussian images was used to detect bright local maxima as PPI signals. In 3D images, double detection of PPI was filtered out at the same position in consecutive Z stacks. After detecting all the PPI locations in 3D, PPI was observed within a 2.5-pixel radius (0.045 um) by creating a PPI neighborhood graph of radius threshold 2.5 pixels and getting all connected components in the graph. Finally, the mean position of the unique connected components in the graph was extracted as identified unique PPI signals in 3D.

A further assay relates to sox2/oct4. Described as above. The note with it: 12 hours, 9 PPI dataset. It is filed as cell-based, human. The method, then:
as §1, §2, §3, §4

The test system of a further assay is cyclin D1/CDK4. Described as above. Type of assay: cell-based, human. The note with it: 12 hours, 9 PPI dataset. The method, then: as §1, §2, §3, §4
The subject of the next assay is NF-κB/p-p90RSK. The assay is described as above. It is filed as cell-based, human. To be noted: 12 hours, 9 PPI dataset. As to the method: as §1, §2, §3, §4
Assay [1] has as its system pancytokeratin-positive cells. The assay is described as follows: Pan-cytokeratin staining of HCC827 xenograft tissue. Type of assay: in vivo, mouse. To be noted: 2-month treatment. The text has this:
(§5) Tissues: HCC827-derived mouse xenografts were provided by Dr. Sun Shi-yong (Emory University). […] Mice were then euthanized, and the tumor was embedded in OCT for sectioning. The OCT tissues were fixed in acetone, rehydrated, permeabilized in 0.4% Triton X-100, blocked, and ready for multiplexed experiments.

For another assay, the system named is PC9 cells. To be noted: 0 to 10 nM, 3-day treatment; cited from earlier work.
The next assay has as its system MEK/ERK signaling. The assay is described as follows: RapMPI on HCC827 xenograft tissue. It is filed as in vivo, mouse. The note with it: 2-month vs 1-week treatment.
From the text: as §5
(§6) The staining settings were the same as the RapMPI in cell cultures. The blocking step between cycles for tissue multiplexing was skipped to avoid hiding the signals. The tissue samples were mounted with 10% glycerol made in 1×PBS and covered the slide using a 24×50 mm No. 1 coverslip (3322, Thermo Scientific) to prevent evaporation during imaging. To de-coverslip the sample after imaging, the slide was placed in a vertical jar containing 1×PBS for around 10 minutes, and the coverslip was released due to gravity.
(§7) To avoid loss of PPI information due to cell segmentation error, a nearest-distance-based assignment method was used to assign the PPI signal detected and not in any cell segmentation mask. For each PPI signal not in any segmented cell regions, the nearest cell mask pixel was observed and if the distance was lower than a user-defined value, it was assigned to the cell to which the nearest cell mask pixel belonged.

The subject of a further assay is cyclin E/CDK2. The assay is described as follows: RapMPI on HCC827 xenograft tissue. The note with it: 1-week treatment (responders). It is filed as in vivo, mouse.
From the text: as §5, §6, §7

The subject of another assay is AKT/mTOR pathways. The experiment in a line: RapMPI on HCC827 xenograft tissue. It is filed as in vivo, mouse. To be noted: 2-month vs 1-week treatment.
From the text: as §5, §6, §7

As for `C=CC(=O)Nc1cc(Nc2nccc(-c3cn(C)c4ccccc34)n2)c(OC)cc1N(C)CCN(C)C` [Osimertinib], in the assay on p-EGFR (Tyr1086) (48 hours), the “p-EGFR localization (cell membrane, nucleus)” value was “mainly localized in the cell membrane and the nuclear p-EGFR expression was relatively low”. Further, in the assay on p-EGFR (Tyr1086) (48 hours vs control), the “p-EGFR (Tyr1086) expression level in multiplexed heatmap” value is reported as “remained minimally enhanced; also recorded: remained minimally altered” and the “spatial continuity of p-EGFR distribution on the cell membrane” value is on record as “disrupted spatial continuity in the p-EGFR distributions on the cell membrane”. For the same compound, the “interactions between Tom20 and Bim” value in the assay with Bim/Tom20 is listed as “Reduced interactions”. Besides, the “sox2/oct4 PPI” value with sox2/oct4 is given as “downregulation”. In addition, the “cyclin D1/CDK4 PPI” value in the assay with cyclin D1/CDK4 is reported as “inhibitory effect”. In addition, the “NF-κB/p-p90RSK PPI” value in the assay with NF-κB/p-p90RSK was “effectively inhibited”. In [1], the pancytokeratin-positive cells result is listed as “more pancytokeratin-positive cells”. Moreover, in the assay on PC9 cells, the cell survival rate result was “decreased as the concentration has increased from 0 to 10 nM; also recorded: decreased as the concentration was increased from 0 to 10-nM”. Besides, the “MEK/ERK signaling in pan-cytokeratin positive regions” value with MEK/ERK signaling is on record as “enhanced”. In the assay on cyclin E/CDK2, the “cyclin E/CDK2 PPI in responders” value is reported as “downregulation”. In the assay with AKT/mTOR pathways, the “AKT/mTOR pathways in pan-cytokeratin positive regions” value was “downregulating”.
